Source: patent US10301280B2 (Plexxikon Inc., priority 2012, dated 2019)

Molecular target: c-kit kinase (Homo sapiens (Human), UniProt P10721)
Test: c-Kit biochemical assay (AlphaScreen)
Conditions: c-kit biochemical inhibitory activity
Outline: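 AlphaScreen of biotin-(E4Y)3 (100 nM) phosphorylation by c-kit (0.1 ng) in HEPES pH 7.2, Mg/Mn, 10 μM ATP, 5% DMSO, 1 h at room temperature; variant uses 100 μM ATP, 30 nM biotin-(E4Y)10, 1 ng enzyme. PY20 acceptor/streptavidin donor signal versus 8-point concentration gives IC50.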

c-kit kinase, sequence (P10721 26-976): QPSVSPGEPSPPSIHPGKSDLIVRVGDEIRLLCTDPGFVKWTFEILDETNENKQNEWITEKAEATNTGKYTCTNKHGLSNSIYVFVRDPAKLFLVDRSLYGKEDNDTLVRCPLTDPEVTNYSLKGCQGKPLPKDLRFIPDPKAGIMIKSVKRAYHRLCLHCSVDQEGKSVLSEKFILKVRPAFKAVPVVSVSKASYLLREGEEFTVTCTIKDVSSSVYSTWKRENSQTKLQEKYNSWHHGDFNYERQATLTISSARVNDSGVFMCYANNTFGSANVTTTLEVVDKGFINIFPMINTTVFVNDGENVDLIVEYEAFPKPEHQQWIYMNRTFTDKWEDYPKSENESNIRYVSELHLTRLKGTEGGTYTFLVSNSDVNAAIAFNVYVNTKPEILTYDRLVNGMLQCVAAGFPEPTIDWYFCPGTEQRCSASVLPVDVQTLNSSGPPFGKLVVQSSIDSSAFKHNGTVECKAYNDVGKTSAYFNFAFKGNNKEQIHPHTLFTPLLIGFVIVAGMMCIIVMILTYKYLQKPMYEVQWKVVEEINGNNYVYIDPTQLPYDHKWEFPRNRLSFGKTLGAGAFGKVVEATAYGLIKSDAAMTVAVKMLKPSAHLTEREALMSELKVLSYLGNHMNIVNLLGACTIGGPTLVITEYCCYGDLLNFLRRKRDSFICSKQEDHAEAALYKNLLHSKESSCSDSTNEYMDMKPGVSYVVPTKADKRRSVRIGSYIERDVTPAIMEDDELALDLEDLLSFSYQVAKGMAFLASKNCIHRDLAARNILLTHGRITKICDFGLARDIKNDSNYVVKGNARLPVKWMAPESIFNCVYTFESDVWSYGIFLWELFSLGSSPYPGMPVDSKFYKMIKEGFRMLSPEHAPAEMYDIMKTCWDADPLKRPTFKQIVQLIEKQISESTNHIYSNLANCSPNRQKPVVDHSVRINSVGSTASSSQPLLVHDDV

| Compound | IC50 [µM] |
| --- | --- |
| Cc1c[nH]nc1C(=O)Nc1cnc2[nH]c(-c3ccc(F)cc3)cc2c1 [P-2029, N-[2-(4-fluorophenyl)-1H-pyrrolo[2,3-b]pyridin-5-yl]-4-methyl-1H-pyrazole-3-carboxamide] | 0.0001 to 1 |
| Cc1n[nH]c(C(=O)Nc2cnc3[nH]c(-c4ccc(F)cc4OC(F)F)cc3c2)c1C [P-2268, N-[2-[2-(difluoromethoxy)-4-fluoro-phenyl]-1H-pyrrolo[2,3-b]pyridin-5-yl]-3,4-dimethyl-1H-pyrazole-5-carboxamide] | 1 to 10 |
| COc1cncc(-c2cc3cc(NC(=O)c4[nH]nc(C)c4C)cnc3[nH]2)c1 [P-2183, N-[2-(5-methoxy-3-pyridyl)-1H-pyrrolo[2,3-b]pyridin-5-yl]-3,4-dimethyl-1H-pyrazole-5-carboxamide] | 10 to 200 |
| Cc1n[nH]c(C(=O)Nc2cnc3[nH]c(-c4cnn(C5CCNCC5)c4)cc3c2)c1C [P-2048, 3,4-dimethyl-N-[2-[1-(4-piperidyl)pyrazol-4-yl]-1H-pyrrolo[2,3-b]pyridin-5-yl]-1H-pyrazole-5-carboxamide] | 0.0001 to 1 |
| CNC(=O)c1cccc(Nc2ncc(NC(=O)c3[nH]nc(C)c3C)cn2)c1 [P-2054, 3,4-dimethyl-N-[2-[3-(methylcarbamoyl)anilino]pyrimidin-5-yl]-1H-pyrazole-5-carboxamide] | 1 to 10 |
| Cc1n[nH]c(C(=O)Nc2cnc3[nH]c(-c4cccc(C(=O)O)c4C)cc3c2)c1C [P-2297, 3-[5-[(3,4-dimethyl-1H-pyrazole-5-carbonyl)amino]-1H-pyrrolo[2,3-b]pyridin-2-yl]-2-methyl-benzoic acid] | 0.0001 to 1 |
| Cc1n[nH]c(C(=O)Nc2cnc(Nc3cccc(NS(=O)(=O)c4ccccc4)c3)nc2)c1C [P-2053, N-[2-[3-(benzenesulfonamido)anilino]pyrimidin-5-yl]-3,4-dimethyl-1H-pyrazole-5-carboxamide] | 1 to 10 |
| Cc1cc(-c2cc3cc(NC(=O)c4[nH]nc(C)c4C)cnc3[nH]2)cnc1C [P-2282, N-[2-(5,6-dimethyl-3-pyridyl)-1H-pyrrolo[2,3-b]pyridin-5-yl]-3,4-dimethyl-1H-pyrazole-5-carboxamide] | 1 to 10 |
| Cc1cc(C(=O)Nc2cnc3[nH]c(C4=CCN(C(=O)N5CCOCC5)CC4)cc3c2)n[nH]1 [P-2031, 5-methyl-N-[2-[1-(morpholine-4-carbonyl)-3,6-dihydro-2H-pyridin-4-yl]-1H-pyrrolo[2,3-b]pyridin-5-yl]-1H-pyrazole-3-carboxamide] | 0.0001 to 1 |
| Cc1cc(C(=O)Nc2cnc3[nH]c(-c4ccc(F)cc4)cc3c2)[nH]n1 [P-2019, N-[2-(4-fluorophenyl)-1H-pyrrolo[2,3-b]pyridin-5-yl]-3-methyl-1H-pyrazole-5-carboxamide] | 10 to 200 |
| Cc1cccnc1C(=O)Nc1cnc2[nH]c(-c3ccccc3)cc2c1 [P-2016, 3-methyl-N-(2-phenyl-1H-pyrrolo[2,3-b]pyridin-5-yl)pyridine-2-carboxamide] | 1 to 10 |
| Cc1n[nH]c(C(=O)Nc2cnc3[nH]c(-c4cnccc4C(N)=O)cc3c2)c1C [P-2272, 3-[5-[(3,4-dimethyl-1H-pyrazole-5-carbonyl)amino]-1H-pyrrolo[2,3-b]pyridin-2-yl]pyridine-4-carboxamide] | 10 to 200 |
| Cc1cc(Cl)ccc1-c1cc2cc(NC(=O)c3[nH]nc(C)c3C)cnc2[nH]1 [P-2277, N-[2-(4-chloro-2-methyl-phenyl)-1H-pyrrolo[2,3-b]pyridin-5-yl]-3,4-dimethyl-1H-pyrazole-5-carboxamide] | 10 to 200 |
| O=C(Nc1cnc2[nH]c(-c3ccc(F)cc3)cc2c1)c1n[nH]c2c1CCCC2 [P-2047, N-[2-(4-fluorophenyl)-1H-pyrrolo[2,3-b]pyridin-5-yl]-4,5,6,7-tetrahydro-1H-indazole-3-carboxamide] | 10 to 200 |
| Cc1n[nH]nc1C(=O)Nc1cnc2[nH]c(-c3ccc(F)cc3)cc2c1 [P-2037, N-[2-(4-fluorophenyl)-1H-pyrrolo[2,3-b]pyridin-5-yl]-5-methyl-2H-triazole-4-carboxamide] | 1 to 10 |
| Cc1n[nH]c(C(=O)Nc2cnc3[nH]c(C4=CCN(C(=O)N5CCOCC5)CC4)cc3c2)c1Cl [P-2036, 4-chloro-3-methyl-N-[2-[1-(morpholine-4-carbonyl)-3,6-dihydro-2H-pyridin-4-yl]-1H-pyrrolo[2,3-b]pyridin-5-yl]-1H-pyrazole-5-carboxamide] | 0.0001 to 1 |
| Cc1n[nH]c(C(=O)Nc2cnc3[nH]c(-c4cccnc4C(F)(F)F)cc3c2)c1C [P-2176, 3,4-dimethyl-N-[2-[2-(trifluoromethyl)-3-pyridyl]-1H-pyrrolo[2,3-b]pyridin-5-yl]-1H-pyrazole-5-carboxamide] | 10 to 200 |
| Cc1n[nH]c(C(=O)Nc2cnc3[nH]c(-c4ccnc(C(C)C)c4)cc3c2)c1C [P-2163, N-[2-(2-isopropyl-4-pyridyl)-1H-pyrrolo[2,3-b]pyridin-5-yl]-3,4-dimethyl-1H-pyrazole-5-carboxamide] | 0.0001 to 1 |

| Compound | IC50 [µM] |
| --- | --- |
| Cc1n[nH]c(C(=O)Nc2cnc3[nH]c(-c4ccnc5c4OCCO5)cc3c2)c1C [P-2179, N-[2-(2,3-dihydro-[1,4]dioxino[2,3-b]pyridin-8-yl)-1H-pyrrolo[2,3-b]pyridin-5-yl]-3,4-dimethyl-H-pyrazole-5-carboxamide] | 1 to 10 |
| CCc1ccc(-c2cc3cc(NC(=O)c4[nH]nc(C)c4C)cnc3[nH]2)cn1 [P-2178, N-[2-(6-ethyl-3-pyridyl)-1H-pyrrolo[2,3-b]pyridin-5-yl]-3,4-dimethyl-1H-pyrazole-5-carboxamide] | 10 to 200 |
| O=C(Nc1cnc2[nH]c(-c3ccccc3)cc2c1)c1ncccc1F [P-2012, 3-fluoro-N-(2-phenyl-1H-pyrrolo[2,3-b]pyridin-5-yl)pyridine-2-carboxamide] | 0.0001 to 1 |
| Cc1n[nH]c(C(=O)Nc2cnc3[nH]c(-c4ccc(F)c(-c5nn[nH]n5)c4)cc3c2)c1C [P-2174, N-[2-[4-fluoro-3-(2H-tetrazol-5-yl)phenyl]-1H-pyrrolo[2,3-b]pyridin-5-yl]-3,4-dimethyl-1H-pyrazole-5-carboxamide] | 1 to 10 |
| Cc1n[nH]c(C(=O)Nc2cnc3[nH]c(C4=CCOCC4)cc3c2)c1C [P-2271, N-[2-(3,6-dihydro-2H-pyran-4-yl)-1H-pyrrolo[2,3-b]pyridin-5-yl]-3,4-dimethyl-1H-pyrazole-5-carboxamide] | 0.0001 to 1 |
| Cc1n[nH]c(C(=O)Nc2cnc3[nH]c(-c4cccc(CC(=O)O)c4)cc3c2)c1C [P-2293, 2-[3-[5-[(3,4-dimethyl-1H-pyrazole-5-carbonyl)amino]-1H-pyrrolo[2,3-b]pyridin-2-yl]phenyl]acetic acid] | 0.0001 to 1 |
| Cc1cc(-c2cc3cc(NC(=O)c4[nH]nc(C)c4C)cnc3[nH]2)ccc1C(=O)O [P-2296, 4-[5-[(3,4-dimethyl-1H-pyrazole-5-carbonyl)amino]-1H-pyrrolo[2,3-b]pyridin-2-yl]-2-methyl-benzoic acid] | 0.0001 to 1 |
| Cc1n[nH]c(C(=O)Nc2cnc3[nH]c(-c4ccncc4Cl)cc3c2)c1C [P-2278, N-[2-(3-chloro-4-pyridyl)-H-pyrrolo[2,3-b]pyridin-5-yl]-3,4-dimethyl-1H-pyrazole-5-carboxamide] | 10 to 200 |
| Cc1cc(C(=O)Nc2cnc3[nH]c(N4CCOCC4)cc3c2)[nH]n1 [P-2058, 3-methyl-N-(2-morpholino-1H-pyrrolo[2,3-b]pyridin-5-yl)-1H-pyrazole-5-carboxamide] | 10 to 200 |
| O=C(Nc1cnc2[nH]c(-c3ccccc3)cc2c1)c1cccc2n[nH]cc12 [P-2289, N-(2-phenyl-1H-pyrrolo[2,3-b]pyridin-5-yl)-2H-indazole-4-carboxamide] | 0.0001 to 1 |
| Cc1n[nH]c(C(=O)Nc2cnc3[nH]c(-c4ccnc(N5CCN(C(=O)C6CC6)CC5)c4)cc3c2)c1C [P-2187, N-[2-[2-[4-(cyclopropanecarbonyl)piperazin-1-yl]-4-pyridyl]-1H-pyrrolo[2,3-b]pyridin-5-yl]-3,4-dimethyl-1H-pyrazole-5-carboxamide] | 1 to 10 |
| CC(=O)Nc1cccc(C(=O)Nc2cnc3[nH]c(-c4ccc(F)cc4)cc3c2)c1 [P-2026, 3-acetamido-N-[2-(4-fluorophenyl)-1H-pyrrolo[2,3-b]pyridin-5-yl]benzamide] | 0.0001 to 1 |
| Cc1n[nH]c(C(=O)Nc2cnc3[nH]c(-c4ccc(F)nc4F)cc3c2)c1C [P-2280, N-[2-(2,6-difluoro-3-pyridyl)-1H-pyrrolo[2,3-b]pyridin-5-yl]-3,4-dimethyl-1H-pyrazole-5-carboxamide] | 10 to 200 |
| Cc1n[nH]c(C(=O)Nc2cnc3[nH]nc(-c4cccc(N5CCN(C(=O)OC(C)(C)C)CC5)c4)c3c2)c1C [P-2162, tert-butyl 4-[3-[5-[(3,4-dimethyl-1H-pyrazole-5-carbonyl)amino]-1H-pyrazolo[3,4-b]pyridin-3-yl]phenyl]piperazine-1-carboxylate] | 0.0001 to 1 |
| Cc1noc(C)c1C(=O)Nc1cnc2[nH]c(-c3ccccc3)cc2c1 [P-2013, 3,5-dimethyl-N-(2-phenyl-1H-pyrrolo[2,3-b]pyridin-5-yl)isoxazole-4-carboxamide] | 0.0001 to 1 |
| Cc1[nH]nc(C(=O)Nc2cnc3[nH]c(C4=CCN(C(=O)C5CC5)CC4)cc3c2)c1C [P-2043, N-[2-[1-(cyclopropanecarbonyl)-3,6-dihydro-2H-pyridin-4-yl]-1H-pyrrolo[2,3-b]pyridin-5-yl]-4,5-dimethyl-1H-pyrazole-3-carboxamide] | 0.0001 to 1 |
| Cc1n[nH]c(C(=O)Nc2cnc3[nH]c(-c4ccc(F)cc4)cc3c2)c1C [P-2024, N-[2-(4-fluorophenyl)-1H-pyrrolo[2,3-b]pyridin-5-yl]-3,4-dimethyl-1H-pyrazole-5-carboxamide] | 10 to 200 |
| Cc1nn(C2CN(C(=O)OC(C)(C)C)C2)cc1-c1cc2cc(NC(=O)c3[nH]nc(C)c3C)cnc2[nH]1 [P-2285, tert-butyl 3-[4-[5-[(3,4-dimethyl-1H-pyrazole-5-carbonyl)amino]-1H-pyrrolo[2,3-b]pyridin-2-yl]-3-methyl-pyrazol-1-yl]azetidine-1-carboxylate] | 0.0001 to 1 |
